Measurements reported in patent US20020192754A1 (MAX-PLANCK-GESELLSCHAFT E.V., priority 1999, published 2002).
Where two headings read alike, the source gives them in different places. One block for each compound: values may come before it. Where a SMILES comes first, the peptide text is derived from it. [ ]: non-standard residue; d: D form. The star is where a group is joined. Sta = CC(C)C[C@H](N)[C@@H](O)CC(=O)O; Isovaleryl = CC(C)CC(=O)*; CH2Cl = ClC*

Columns and labels:
human GzmK [1] = target: T1, human GzmK (Homo sapiens, UniProt P49863); assay: Inhibition of human GzmK by various inhibitors (residual activity, this study); type: biochemical
T1 construct: Met-Glu N-terminal helper dipeptide (pro-dipeptide) (N, cleaved yes); made in house
T1 sequence (P49863 27-264): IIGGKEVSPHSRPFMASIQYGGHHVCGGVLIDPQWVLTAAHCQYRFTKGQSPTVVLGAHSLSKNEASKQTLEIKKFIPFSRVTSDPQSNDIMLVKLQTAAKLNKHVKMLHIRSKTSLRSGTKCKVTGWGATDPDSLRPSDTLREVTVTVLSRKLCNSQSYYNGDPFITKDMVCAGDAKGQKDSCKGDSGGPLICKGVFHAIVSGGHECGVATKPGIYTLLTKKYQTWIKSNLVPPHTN
Method: These activity tests were performed in wells of a 96-cup tray with respectively 150 μl of the sample volume.
The thiobenzylester substrates and Ellman's reagency were diluted to end concentrations of 0.3 mM in the test buffer (150 mM Tris, 50 mM NaCl, 0.01% Triton X-100, pH 7.6). The various granzyme preparations were likewise diluted to 3-15 nM in the test buffer. The color change occurring with the conversion of the substrates was measured at 405 nm and room temperature over 5 minutes in the ELISA reader. The difference in absorptions at the beginning and after 5 minutes as it relates to time was used to calculate the conversion rate.
After a 60-minute preincubation at RT the residual activity was ascertained in triple batches. Initial activities were determined in buffers containing the same proportion of organic solvents. […] Molar concentrations of active aprotinine were ascertained with the use of activity-titrated bovine trypsin.

human GzmK [2] = target: T1, human GzmK; conditions: cited from earlier work
[3] = inhibitor 0.1 mM, I:E 33 x 10^3, 3 nM human GzmK, 60-minute preincubation at RT

- remaining activity at 27000 µM (human GzmK [1]; inhibitor 27.0 mM, I:E 9000 x 10^3, 3 nM human GzmK, 60-minute preincubation at RT): 43.1%
Compound: N=C(N)c1ccccc1 [Benzamidine]
- Residual Activity (%) Babé et al., Bio. Appl. Bioch. 27:117-124 (1998) (human GzmK [2]; table row: inhibitor 27.0 mM): 50%

Compound: O=C(O)CN(CCN(CC(=O)O)CC(=O)O)CC(=O)O [EDTA]
- Residual Activity (%) This study (human GzmK [1]): 106.4%
- Residual Activity (%) Babé et al., Bio. Appl. Bioch. 27:117-124 (1998) (human GzmK [2]): 100%

- Residual Activity (%) This study (human GzmK [1]; [3]): 54.8%
Compound: NC(N)=NCCC[C@H](NC(=O)CNC(=O)[C@@H](N)CCC(=O)O)C(=O)CCl [EGR-CMK] (H-Glu-Gly-Arg-CH2Cl)

- Residual Activity (%) This study (human GzmK [1]; [3]): 0.0%
Compound: NC(N)=NCCC[C@H](NC(=O)[C@@H]1CCCN1C(=O)[C@H](N)Cc1ccccc1)C(=O)CCl [FPR-CMK]

Compound: CC(=O)N[C@@H](CC(C)C)C(=O)N[C@@H](CC(C)C)C(=O)N[C@H](C=O)CCCNC(=N)N [Leupeptin]
- remaining activity at 200 µM (human GzmK [1]; inhibitor 0.2 mM, I:E 67 x 10^3, 3 nM human GzmK, 60-minute preincubation at RT): 78%
- Residual Activity (%) Babé et al., Bio. Appl. Bioch. 27:117-124 (1998) (human GzmK [2]; table row: inhibitor 0.2 mM): 50%

Compound: Cl.NCCc1ccc(S(=O)(=O)F)cc1 [PefablocSC]
- Residual Activity (%) This study (human GzmK [1]; inhibitor 0.5 mM, I:E 170 x 10^3, 3 nM human GzmK, 60-minute preincubation at RT): 26.0%
- Residual Activity (%) This study (human GzmK [1]; inhibitor 1.0 mM, I:E 330 x 10^3, 3 nM human GzmK, 60-minute preincubation at RT): 5.7%

Compound: CC(C)CC(=O)N[C@H](C(=O)N[C@H](C(=O)N[C@@H](CC(C)C)[C@@H](O)CC(=O)N[C@@H](C)C(=O)N[C@@H](CC(C)C)[C@@H](O)CC(=O)O)C(C)C)C(C)C [Pepstatin A] (Isovaleryl-VV[Sta]A[Sta]-OH)
- Residual Activity (%) This study (human GzmK [1]; inhibitor 0.001 mM, I:E 0.3 x 10^3, 3 nM human GzmK, 60-minute preincubation at RT): 93.0%
- Residual Activity (%) Babé et al., Bio. Appl. Bioch. 27:117-124 (1998) (human GzmK [2]; table row: inhibitor 0.001 mM): 100%

Compound: Aprotinine
- Residual Activity (%) This study (human GzmK [1]; inhibitor 0.015 mM, I:E 5 x 10^3, 3 nM human GzmK, 60-minute preincubation at RT): 8.6%
- Residual Activity (%) Babé et al., Bio. Appl. Bioch. 27:117-124 (1998) (human GzmK [2]; table row: inhibitor 0.015 mM): 0%

Compound: N-tosyllysine chloromethylketone [TLCK]
- Residual Activity (%) This study (human GzmK [1]; [3]): 91.0%
- Residual Activity (%) Babé et al., Bio. Appl. Bioch. 27:117-124 (1998) (human GzmK [2]; table row: inhibitor 0.1 mM): 0%

Compound: N-tosylphenylalanine chloromethylketone [TPCK]
- Residual Activity (%) This study (human GzmK [1]; inhibitor 0.05 mM, I:E 17 x 10^3, 3 nM human GzmK, 60-minute preincubation at RT): 96.0%
- Residual Activity (%) Babé et al., Bio. Appl. Bioch. 27:117-124 (1998) (human GzmK [2]; table row: inhibitor 0.05 mM): 95%
